Measured values reported in BigSolDB 2.1.

COc1cc(/C=C/C(=O)O)cc(OC)c1OC
solubility (mole fraction)
Conditions | 278.15 K | 283.15 K | 288.15 K | 293.15 K | 298.15 K | 303.15 K | 308.15 K | 313.15 K | 318.15 K | 323.15 K
in acetone | 0.0175 | 0.0201 | 0.0232 | 0.0265 | 0.0301 | 0.0343 | 0.0391 | 0.044 | 0.0492 | 0.0551
in ethanol | 0.00626 | 0.0085 | 0.0114 | 0.0153 | 0.0201 | 0.0261 | 0.0341 | 0.044 | 0.057 | 0.0725
in isopropanol | 0.00465 | 0.0063 | 0.00867 | 0.0121 | 0.0163 | 0.0215 | 0.0289 | 0.039 | 0.0511 | 0.0665
in methanol | 0.00662 | 0.00922 | 0.0127 | 0.0175 | 0.0236 | 0.0315 | 0.0417 | 0.0548 | 0.0717 | 0.0943
in water | 4.67e-05 | 5.3e-05 | 6.05e-05 | 6.8e-05 | 7.61e-05 | 8.55e-05 | 9.58e-05 | 0.000107 | 0.000118 | 0.000131
